Results published in patent US9567301B2, “Pyrrol-1-yl benzoic acid derivatives useful as myc inhibitors” (Whitehead Institute for Biomedical Research, priority 2012, dated 2017).

Columns and labels:
[1] = target: c-Myc/Max/Ebox DNA (Homo sapiens, UniProt P01106); assay: c-Myc/Max/Ebox DNA AlphaScreen assay; format: binding; design: An exemplary assay uses full-length human c-Myc and Max proteins; his6 (cleaved yes); made in house; conditions: c-Myc/Max/Ebox DNA AlphaScreen; NA: inactive under assay conditions; read-out: Biochemical IC50
Protocol: This protocol was used to generate the biochemical data in Table 2 and FIG. 11. The primary AlphaScreen assay is amenable to 384-well and 1536-well plate formats for HTS. Human his6-c-Myc and his6-Max were used with biotinylated DNA containing a single Ebox sequence (biotin[…]) purchased from MWG Operon. Free c-Myc was generated from his6-c-Myc through thrombin cleavage of the his6 tag. For 384-well plate assays, 10 μL of a 2× solution of free c-Myc (25 nM final), Ni++-coated Acceptor Bead (25 μg/ml final), and biotinylated Ebox oligo (10 nM final) were added to 384-well plates with a Biotek EL406 liquid handler. 100 nL of compounds from stock plates were added by pin transfer using a Janus Workstation (PerkinElmer), allowing the compounds to interact with c-Myc prior to c-Myc binding with Max. In the current assay, DMSO was not allowed to exceed 2% v/v of the assay. 10 μl of 2× master mix containing streptavidin-coated donor beads (25 μg/ml final) and his6-Max (1.25 nM final) were added. AlphaScreen measurements were performed on an Envision 2104 (PerkinElmer) utilizing the manufacturer's protocol. The assay can also be performed in 1536-plate format with 8 μL total volume using two 4 μL additions (instead of […] and 10 μL respectively).
Assays are performed with minor modifications from the manufacturer's protocol (PerkinElmer). Both master mixes were made in room temperature assay buffer (50 mM HEPES, 150 mM NaCl, 0.2% w/v BSA, 0.02% w/v Tween20, 40 μg/ml glycogen, 500 μM DTT, pH 8.0, DTT and glycogen added fresh). Alpha beads were added to respective master solutions and wrapped in foil. All subsequent steps were performed in low light conditions. Solution 1: 2× solution of components with final concentrations of cMyc (25 nM), Ni-coated Acceptor Bead (25 μg/ml), and biotinylated Ebox oligo (10 nM). Solution 2: 2× solution of streptavidin-coated donor beads (25 μg/ml final) and his6-Max (1.25 nM final). […] Solution 1 were added to 384-well plate (AlphaPlate-384, PerkinElmer) with Biotek EL406 liquid handler and the plates were centrifuged at 1000 rpm for 1 minute. 100 nL of compounds from stock plates were added by pin transfer using a Janus Workstation. 10 μL Solution 2 were added with the liquid handler. Plates were sealed with foil to block light exposure and prevent evaporation. Plates were centrifuged at 1000 rpm for 1 minute followed by 2 hour incubation. AlphaScreen measurements were performed on an Envision 2104 utilizing the manufacturer's protocol. Excitation was at 680 nm for donor bead release of singlet oxygen and emission was read with a bandpass filter from 520-620 nm. Glycogen: Roche Diagnostics #10901393001. Plate 1536: Perkin Elmer, 6004350. Plate 384: Perkin Elmer, 6005350. Nickel-His Alpha Beads: 6760619R.

[2] = system: H2171 cells; assay: Cell viability assay (ATPlite), H2171; format: cell-based, human; conditions: Homo sapiens, NCI-H2171, 72 h, cell viability, three days, ATPlite; NA: inactive under assay conditions
Protocol: This assay was used for the H2171 and MM1S cell data shown in Table 2, and for the Jurkat (an immortalized line of human T lymphocyte cells), Ly1 (OCI-Ly1 human non-Hodgkin lymphoma cell line), Ly4 (OCI-Ly4 human non-Hodgkin lymphoma cell line), H2172 (NCI-H2172 human non-small cell lung cancer cell line), and CA-46 (a human Burkitt's lymphoma cell line) cell data shown in Table 3 and FIG. 12. Cells were counted and adjusted to 60,000 cells/mL. Using a Biotek EL406, 50 μL of cells are media were distributed into 384 well white plates from Thermo. Immediately after plating, compound in DMSO was distributed to plates. For large plate sets, cells were returned to 37° C. incubator while not in use.
Compounds were added to plates using a 100 nL 384 well pin transfer manifold on a Janus workstation. Stocks were arrayed in 10 point quadruplicate dose response in DMSO stock in 384 well Greiner compound plates. After addition of compound, plates were incubated for three days in a 37° C. incubator.
Cell viability was read out using ATPlite from Perkin Elmer. Plates were removed from the incubator and brought to room temperature prior to use. Lyophilized powder was resuspended in lysis buffer and diluted 1:2 with DI water. 25 μL of this solution was added to each well using the Biotek liquid handler. Plates were sealed with adherent aluminum seals prior to vortexing and spinning down at 1000 g for 1 minute. Plates were incubated for 15 minutes at room temperature before signal was read on an Envision Plate Reader.

Chain of c-Myc/Max/Ebox DNA (P01106 16-454): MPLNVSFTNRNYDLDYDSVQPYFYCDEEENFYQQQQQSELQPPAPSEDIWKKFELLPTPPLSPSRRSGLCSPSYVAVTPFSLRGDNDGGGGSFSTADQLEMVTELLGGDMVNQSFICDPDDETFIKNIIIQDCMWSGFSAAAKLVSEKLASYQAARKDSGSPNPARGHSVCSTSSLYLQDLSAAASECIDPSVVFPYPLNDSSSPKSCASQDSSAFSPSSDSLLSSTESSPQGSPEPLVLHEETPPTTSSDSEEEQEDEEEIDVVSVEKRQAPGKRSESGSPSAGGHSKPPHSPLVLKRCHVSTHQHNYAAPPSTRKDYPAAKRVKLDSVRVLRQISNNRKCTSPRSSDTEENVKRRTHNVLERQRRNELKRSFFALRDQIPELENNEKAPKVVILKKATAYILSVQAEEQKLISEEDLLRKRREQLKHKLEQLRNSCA

Compound	IC50 [1] [µM]	EC50 [2] [µM]
Cc1ccc(C)n1-c1cccc(C(=O)O)c1 [Compound 2]	74.5	–
Cc1ccc(C)n1-c1ccc(C(=O)O)cc1 [Compound 3]	287	–
Cc1ccc(C)n1-c1cc(C(=O)O)ccc1O [Compound 4]	34.1	–
Cc1ccc(C)n1-c1ccc(C(=O)O)c(O)c1 [Compound 5]	4.29	–
Cc1ccc(C)n1-c1ccc(C(=O)O)cc1O [Compound 7]	23.5	122
Cc1cc(C(=O)O)ccc1-n1c(C)ccc1C [Compound 11]	45.8	60.6
COC(=O)c1ccc(-n2c(C)ccc2C)cc1O [Compound 18]	1.54	–
O=C(O)c1ccccc1-n1c(-c2ccccc2)cc2c1CCCC2=O [Compound 29]	252	–
O=C(O)c1cc(-n2cccc2)ccc1N1CCOCC1 [Compound 30]	273	–
CCCC(=O)Nc1ccc(N2CCCCCC2)cc1C(=O)O [Compound 31]	172	–
CCCCC(=O)Nc1ccc(N2CCC(C)CC2)c(C(=O)O)c1 [Compound 32]	881	–
CC(=O)Nc1ccc(N2CCCCCC2)c(C(=O)O)c1 [Compound 33]	171	–
CC(=O)Nc1ccc(N2CCCC(C)C2)c(C(=O)O)c1 (stereo not drawn) [Compound 34]	191	–
Cc1ccc(C)n1-c1ccc(Cl)cc1C(=O)O [Compound 35]	31.3	–
Cc1ccc(C)n1-c1ccc(Br)cc1C(=O)O [Compound 36]	64.7	–
COc1cc(C(=O)O)c(-n2c(C)ccc2C)cc1OC [Compound 37]	62.7	–
Cc1ccc(C)n1-c1cc(Cl)ccc1C(=O)O [Compound 38]	63.7	–
CC(=O)Nc1ccc(-n2c(C)ccc2C)c(C(=O)O)c1 [Compound 40]	34.4	–
Cc1ccc(-c2ccccc2)n1-c1ccccc1C(=O)O [Compound 41]	324	–
Cc1cc2c(n1-c1cccc(C(=O)O)c1)CC(C)(C)CC2=O [Compound 42]	697	–
CC1(C)CC(=O)c2cc(CC(=O)O)n(-c3cccc(C(=O)O)c3)c2C1 [Compound 43]	197	–

Compound	IC50 [1] [µM]	EC50 [2] [µM]
Cc1ccc(C(=O)O)cc1-n1c(C)cc(CN2CCC(N)(C(=O)O)C2)c1C (stereo not drawn) [Compound 44]	194	–
Cc1ccc(C(=O)O)cc1-n1c(C)cc(CN2C[C@H](N(C)C)C[C@H]2CO)c1C [Compound 45]	115	–
Cc1cc(/C=C2\C(=O)NC(=O)N(C)C2=O)c(C)n1-c1cccc(C(=O)O)c1 [Compound 46]	76.8	–
CC(=O)c1cc(C)n(-c2ccc(C(=O)O)cc2)c1C [Compound 47]	166	–
Cc1cc2c(n1-c1ccc(C(=O)O)cc1)CCCCC2 [Compound 48]	51.8	–
Cc1c(-c2ccccc2)c2c(n1-c1ccc(C(=O)O)cc1)CCCC2 [Compound 49]	42	–
Cc1cc2c(n1-c1ccc(C(=O)O)cc1)CC(C)(C)CC2=O [Compound 50]	446	–
CC1(C)CC(=O)c2cc(CC(=O)O)n(-c3ccc(C(=O)O)cc3)c2C1 [Compound 51]	523	–
Cc1cc(/C=C(\C#N)C(=O)Nc2ccc(O)cc2)c(C)n1-c1ccccc1C(=O)O [Compound 52]	36.2	–
Cc1ccccc1N1C(=O)NC(=O)/C(=C\c2cc(C)n(-c3ccccc3C(=O)O)c2C)C1=O [Compound 53]	2510	–
Cc1cc(/C=N/NC(N)=S)c(C)n1-c1ccccc1C(=O)O [Compound 54]	16.3	–
Cc1cc(/C=C2\C(=O)NC(=O)N(c3ccc(F)cc3)C2=O)c(C)n1-c1ccccc1C(=O)O [Compound 55]	58.5	–
Cc1cc(/C=C2\SC(=O)N(C)C2=O)c(C)n1-c1ccccc1C(=O)O [Compound 56]	103	–
Cc1cc(/C=C2\SC(=O)N(C)C2=O)c(C)n1-c1ccccc1C(=O)O [Compound 57]	92.2	–
Cc1cc(/C=C(/C#N)C(=O)NCCc2c[nH]c3ccccc23)c(C)n1-c1ccccc1C(=O)O [Compound 58]	135	–
Cc1cc(/C=C(/C#N)c2nc3ccccc3[nH]2)c(C)n1-c1ccccc1C(=O)O [Compound 59]	125	–
Cc1cccc(C)c1-c1ccccc1C(=O)O [Compound 60]	89.1	–
Cc1cc(C(=O)N/N=C/c2ccccc2)c(C)n1-c1ccccc1C(=O)O [Compound 61]	49.2	–
Cc1ccc(C)n1-c1cc(C(=O)NCCc2ccc(O)c(O)c2)ccc1C(=O)O [Compound 73]	33.4	–
Cc1ccc(C)n1-c1cc(C(=O)N2CCOCC2)ccc1C(=O)O [Compound 75]	8.58	114
Cc1ccc(C)n1-c1cc(C(=O)N/N=C/c2c[nH]cn2)ccc1C(=O)O [Compound 78]	1.75	–

Compound	IC50 [1] [µM]	EC50 [2] [µM]
Cc1ccc(C)n1-c1cc(C(=O)N/N=C/c2ncc[nH]2)ccc1C(=O)O [Compound 81]	2.72	106
Cc1ccc(C)n1-c1cc(C(=O)N/N=C/c2cccc(B(O)O)c2)ccc1C(=O)O [Compound 82]	2.95	–
Cc1ccc(C)n1-c1cc(C(=O)N/N=C/c2ccc(O)cc2)ccc1C(=O)O [Compound 83]	6.85	–
Cc1ccc(C)n1-c1cc(C(=O)N/N=C/c2ccc(S(=O)(=O)O)o2)ccc1C(=O)O [Compound 84]	0.534	–
Cc1ccc(C)n1-c1cc(C(=O)N/N=C/c2cccnc2)ccc1C(=O)O [Compound 86]	5.97	–
Cc1ccc(C)n1-c1cc(C(=O)N/N=C/c2c[nH]c3ccc(F)cc23)ccc1C(=O)O [Compound 95]	23.3	–
Cc1ccc(C)n1-c1cc(C(=O)N/N=C/c2ccc(-c3cncnc3)cc2)ccc1C(=O)O [Compound 102]	26.5	–
Cc1ccc(C)n1-c1cc(C(=O)N/N=C/c2ccc3nccnc3c2)ccc1C(=O)O [Compound 104]	7.11	–
CC(=O)OCOC(=O)c1ccc(C(=O)N/N=C/c2c[nH]cn2)cc1-n1c(C)ccc1C [Compound 108]	–	0.556
Cc1ccc(C)n1-c1cc(C(=O)N/N=C\c2ccc(O)c(F)c2)ccc1C(=O)O [Compound 117]	6.52	–
Cc1ccc(C)n1-c1cc(C(=O)N/N=C\c2cc(F)c(C(=O)O)c(F)c2)ccc1C(=O)O [Compound 118]	0.48	–
Cc1ccc(C)n1-c1cc(C(=O)N/N=C/c2cccc(C(=O)O)c2)ccc1C(=O)O [Compound 120]	0.393	–
Cc1ccc(C)n1-c1cc(C(=O)N/N=C/c2ccccc2)ccc1C(=O)O [Compound 121]	7.69	–
Cc1ccc(C)n1-c1cc(C(=O)N/N=C/c2ccc(C(=O)O)o2)ccc1C(=O)O [Compound 124]	0.708	–
Cc1ccc(C)n1-c1cc(C(=O)N/N=C/c2cc(C(=O)O)ccc2F)ccc1C(=O)O [Compound 125]	1.25	–
Cc1c2ccccc2c(C)n1-c1ccccc1C(=O)O [Compound 137]	57.8	–
CN(C)c1ccc(/N=N/c2ccccc2C(=O)O)cc1 [Compound 154]	43.4	–
CN1CCN(c2ccccc2C(=O)O)CC1 [Compound 156]	346	–
Cc1ccc(C)n1-c1cc(C(=O)N2CCc3ccc(C(=O)O)cc3C2)ccc1C(=O)O [Compound 165]	0.343	–
Cc1ccc(C)n1-c1cc(C(=O)NNC(=O)c2cccc(C(=O)O)c2)ccc1C(=O)O [Compound 166]	1.89	–
